Test results: ChEMBL document CHEMBL5505993, “Identification of a ferritinophagy inducer via sinomenine modification for the treatment of colorectal cancer” (Eur J Med Chem, 2024)
The source made the active and inactive calls.

What was measured:
HCT-116 [1] = assay: Induction of […] ROS production in human HCT-116 cells incubated for 12 hrs by DCFH-DA probe based flow cytometry; type: functional, cell-based
HCT-116 [2] = assay: Antitumor activity against human HCT-116 cells xenografted in BALB/c mouse assessed as increase in 4-HNE level in tumor at 60 mg/kg,ip administrated daily for 14 days by ELISA; type: functional, organism-based; details: time 14.0 day
HCT-116 [3] = assay: Induction of ferroptosis in human HCT-116 cells assessed as increase in ferrous ion level in lysosomes at 20 uM incubated for 12 hrs by Lyso tracker red staining based confocal fluorescence microscopic analysis; type: functional, cell-based
HCT-116 [4] = assay: Induction of autophagy in human HCT-116 cells transfected with mRFP-GFP-LC3B assessed as formation of autophagosomes by measuring reduction in GFP to mRFP fluorescence ratio at 5 to 20 uM incubated for 12 hrs by Lyso tracker red staining based confocal fluorescence microscopic analysis; type: functional, cell-based; details: dose 5-20 µM

Measured: Activity

C=C(Cl)C(=O)NCCCCCCCCCCCC(=O)Oc1c(OC)ccc2c1[C@@]13CCN(C)[C@@H](C2)[C@H]1C=C(OC)C(=O)C3
active: all assays above
